One block for each molecule: values may come before it.
How the values were obtained:
[1] = tested on: mouse DAAO; set-up: method as in PMID 28780732; conditions: cited from earlier work
[2] = tested on: human DAAO; set-up: method as in PMID 28780732; conditions: cited from earlier work
[3] = Translated human PK model (single species allometric scaling from rats)
Method: (§1) The translational modeling steps from the mouse PK/TO/PD model to that for humans are as follows; 1) PK model was replaced by the human PK model predicted from rats with single species allometric scaling approach(6). […] The differential equations of translated human PK/TO/PD model are shown in Eq. S12-S14, 2 and 5. […] The model parameters used for simulation are summarized in Supplementary table 2.
(§2) C1 is calculated by A1/V1. […] Imax represents maximum inhibitory effect of TO on Kout.

[4] = tested on: social interaction (model of negative symptoms); conditions: Balb/c mice; cited from earlier work
[5] = biological target: DAAO (Homo sapiens, UniProt P14920); assay: Inhibition of DAAO activity in vitro; type: biochemical
[6] = tested on: novel object recognition; conditions: cited from earlier work
[7] = Free fraction of TAK-831 in human plasma; type: in vitro ADME; conditions: read-out: fp,human free fraction in plasma
[8] = biological target: P-glycoprotein (P-gp) (Homo sapiens, UniProt P08183); assay: P-glycoprotein substrate assessment; type: in vitro ADME
[9] = biological target: T1, D-amino acid oxidase (DAAO) (Mus musculus, UniProt P18894); assay: Cerebellum target occupancy of DAAO measured by displacement of tracer PGM019260 (mechanistic binding kinetics model); type: in vivo, C57BL/6 J mice
T1 construct: from tissue
Method: (§3) PGM019260 was formulated in 5% dimethyl sulfoxide and 95% v/v of 20% w/v 2-hydroxypropyl-β-cyclodextrin. […] After 2, 4, 6, 8, 10 and 24 h from oral administration, PGM019260 at 60 μg/kg was administered by intravenous route (i.v.) with a dose volume of 1 mL/kg (n = 4). Mice were sacrificed 20 min after tracer dosing. Blood was collected into heparin containing tubes and plasma was separated.
(§4) The grand mean value of tracer concentration in vehicle treatment group calculated from all the time points (2, 4, 6, 8, 10 and 24 h after vehicle treatment) was used as the baseline of tracer concentration across all the time points. […] The differential equations of PK/TO/PD model are shown below (Eqs. 1, 2 and 5). […] 4 and 6, respectively.1 dAp/dt=−CLp/Vp·Ap 2 dTO/dt=Kon·BRmax−TO·Cp−Koff·TO 3 Tracer concentration=BLtr·1−TO 4 In vivoKd=Koff/Kon×fp 5 dPD/dt=Kin−Kout·BRmax−Imax·TO 6 Kin=BL·Kout
(§5) The convergence criterion was three significant digits.

[10] = Plasma PK of TAK-831 after single oral administration in mice (target occupancy study, 1-compartment model); type: in vivo, C57BL/6 J mice
Method: as §3, §4, §5

[11] = tested on: D-serine in cerebellum; conditions: cited from earlier work
[12] = tested on: cerebellar-based associative learning; conditions: mice; cited from earlier work
[13] = tested on: D-serine in cerebellum; assay: Translated human PD model (D-serine in cerebellum); conditions: taken from the mouse model
Method: as §1, §2

[14] = tested on: DAAO; conditions: human, taken from the mouse model
Method: as §1, §2

[15] = Free fraction of TAK-831 in mouse plasma; type: in vitro ADME; conditions: read-out: fp free fraction in mouse plasma
[16] = in vivo; conditions: mouse
Method: Mice were sacrificed (n = 2) 0.25, 0.5, 1, 2, 4, 8 and 24 h after p.o. dosing. Blood was collected with heparinized syringe and plasma was separated. Three separate brain regions (cerebellum, front and back part of cerebrum) were isolated. The radioactivity in plasma and brain regions was measured by liquid scintillation counter. […] Plasma and whole brain homogenate samples were processed for metabolite profiling by HPLC with on-line radioisotope detector or liquid scintillation counter.

[17] = biological target: T2, breast cancer resistance protein (BCRP) (Homo sapiens, UniProt Q9UNQ0); assay: BCRP substrate assessment; type: in vitro ADME
T2 sequence (Q9UNQ0 1-655): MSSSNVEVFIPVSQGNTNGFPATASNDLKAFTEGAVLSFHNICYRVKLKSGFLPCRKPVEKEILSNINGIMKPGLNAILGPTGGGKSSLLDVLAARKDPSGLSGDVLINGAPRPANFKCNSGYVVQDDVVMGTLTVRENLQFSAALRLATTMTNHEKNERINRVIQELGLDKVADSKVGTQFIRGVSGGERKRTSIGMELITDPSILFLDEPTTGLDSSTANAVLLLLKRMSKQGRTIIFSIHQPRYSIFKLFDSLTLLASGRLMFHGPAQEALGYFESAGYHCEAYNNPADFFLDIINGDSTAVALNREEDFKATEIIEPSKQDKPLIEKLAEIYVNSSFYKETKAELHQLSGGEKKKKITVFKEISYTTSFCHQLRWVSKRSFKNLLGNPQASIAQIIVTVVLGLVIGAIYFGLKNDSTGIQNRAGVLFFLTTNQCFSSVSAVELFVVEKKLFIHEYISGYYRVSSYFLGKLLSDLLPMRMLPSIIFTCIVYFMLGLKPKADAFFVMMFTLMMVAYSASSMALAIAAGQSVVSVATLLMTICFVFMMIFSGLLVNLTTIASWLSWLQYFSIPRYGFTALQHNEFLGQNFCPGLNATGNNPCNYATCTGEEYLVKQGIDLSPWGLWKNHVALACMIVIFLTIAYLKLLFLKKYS

[18] = tested on: DAAO; set-up: method as in PMID 28780732; conditions: pre-treatment; cited from earlier work

T1 sequence (P18894 whole entry): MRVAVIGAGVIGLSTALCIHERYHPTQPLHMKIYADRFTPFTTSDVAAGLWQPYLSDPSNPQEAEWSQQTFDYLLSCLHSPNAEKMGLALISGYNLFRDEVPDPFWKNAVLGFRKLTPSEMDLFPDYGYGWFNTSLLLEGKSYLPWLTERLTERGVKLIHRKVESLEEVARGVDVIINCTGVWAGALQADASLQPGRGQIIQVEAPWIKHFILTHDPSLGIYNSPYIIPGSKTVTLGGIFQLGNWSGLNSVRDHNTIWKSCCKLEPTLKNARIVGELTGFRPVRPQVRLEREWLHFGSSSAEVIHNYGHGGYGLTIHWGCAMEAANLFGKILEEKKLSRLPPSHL
Chain of DAAO (Homo sapiens, UniProt P14920) (P14920 whole entry, species assumed): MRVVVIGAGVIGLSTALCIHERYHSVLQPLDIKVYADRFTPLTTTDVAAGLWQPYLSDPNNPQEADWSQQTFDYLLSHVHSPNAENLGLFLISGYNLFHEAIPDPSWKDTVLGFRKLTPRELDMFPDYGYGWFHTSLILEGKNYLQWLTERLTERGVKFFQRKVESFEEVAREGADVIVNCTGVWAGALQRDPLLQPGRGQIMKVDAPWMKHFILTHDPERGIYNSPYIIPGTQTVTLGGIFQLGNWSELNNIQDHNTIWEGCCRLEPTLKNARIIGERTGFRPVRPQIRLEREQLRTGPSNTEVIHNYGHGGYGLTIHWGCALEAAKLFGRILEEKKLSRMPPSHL
Chain of P-glycoprotein (P-gp) (P08183 whole entry): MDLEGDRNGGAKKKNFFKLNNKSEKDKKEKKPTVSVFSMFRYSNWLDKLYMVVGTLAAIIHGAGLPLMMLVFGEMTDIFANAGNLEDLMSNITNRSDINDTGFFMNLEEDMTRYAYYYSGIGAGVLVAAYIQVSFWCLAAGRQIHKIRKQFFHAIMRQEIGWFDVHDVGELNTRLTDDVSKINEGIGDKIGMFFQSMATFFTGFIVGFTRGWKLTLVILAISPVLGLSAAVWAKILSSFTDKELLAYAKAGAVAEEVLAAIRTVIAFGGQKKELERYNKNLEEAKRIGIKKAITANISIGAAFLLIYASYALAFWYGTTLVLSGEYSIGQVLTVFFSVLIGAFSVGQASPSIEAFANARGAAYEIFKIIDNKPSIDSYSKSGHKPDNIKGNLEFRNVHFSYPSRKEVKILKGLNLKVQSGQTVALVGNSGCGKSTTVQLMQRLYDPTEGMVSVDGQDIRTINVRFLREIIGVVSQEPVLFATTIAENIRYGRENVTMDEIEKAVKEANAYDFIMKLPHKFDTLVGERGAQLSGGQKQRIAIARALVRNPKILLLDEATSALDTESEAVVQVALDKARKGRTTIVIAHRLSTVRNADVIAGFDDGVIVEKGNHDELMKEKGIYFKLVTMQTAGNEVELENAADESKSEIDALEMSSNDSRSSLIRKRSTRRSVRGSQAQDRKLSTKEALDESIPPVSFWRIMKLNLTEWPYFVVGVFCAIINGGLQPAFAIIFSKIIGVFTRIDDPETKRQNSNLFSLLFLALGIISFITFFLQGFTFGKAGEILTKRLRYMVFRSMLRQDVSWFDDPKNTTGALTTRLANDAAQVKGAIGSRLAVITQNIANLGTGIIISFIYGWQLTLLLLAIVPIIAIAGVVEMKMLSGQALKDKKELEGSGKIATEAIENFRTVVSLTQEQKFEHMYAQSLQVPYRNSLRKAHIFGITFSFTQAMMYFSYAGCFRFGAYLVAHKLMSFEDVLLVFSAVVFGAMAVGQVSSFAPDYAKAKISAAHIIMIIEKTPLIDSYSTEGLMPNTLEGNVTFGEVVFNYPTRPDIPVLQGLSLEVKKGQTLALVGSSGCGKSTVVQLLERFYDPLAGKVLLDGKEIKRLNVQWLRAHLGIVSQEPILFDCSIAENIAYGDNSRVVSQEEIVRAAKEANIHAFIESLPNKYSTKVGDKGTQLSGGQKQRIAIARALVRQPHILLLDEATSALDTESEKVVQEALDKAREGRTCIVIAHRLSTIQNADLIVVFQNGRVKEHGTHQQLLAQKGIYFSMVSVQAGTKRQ

Compound: COc1ccc(CSc2c[nH]c(=O)c(O)c2)cn1 [PGM019260]
DAAO inhibition in mouse enzyme in vitro [1]: highly potent DAAO inhibition
DAAO inhibition in human enzyme in vitro [2]: highly potent DAAO inhibition

Compound: O=c1[nH]nc(CCc2ccc(C(F)(F)F)cc2)cc1O [TAK-831, 4-hydroxy-6-{2-[4-(trifluoromethyl)phenyl]ethyl}pyridazin-3(2H)-one]
Ka absorption rate constant [3]: 0.218 h⁻¹
efficacy in social interaction model [4]: efficacious
in vitro IC50 values on enzymatic activity, mice vs humans ([5]; comparison between mouse and human enzyme): comparable between mice and humans
IC50 ([5]; read-out: 50% inhibitory concentration (IC50) of DAAO activity in vitro (converted)): 6.33 nM
dose at which efficacy was observed ([6]; acute oral dose in mice): ≥ 0.3 mg/kg
identification of the novel object ([6]; range of acute and chronic doses in mice): able to identify the novel object
fraction unbound [7]: 0.0067
substrate of P-glycoprotein (P-gp) [8]: neither a substrate
Kd [9]: 0.809 nM
fold by which in vivo Kd is lower than in vitro IC50 ([9]; in vivo Kd vs in vitro IC50): about 8 fold
Kon association rate constant ([9]; mice cerebellum, against total plasma concentration, model estimate): 0.0372 mL/ng/h
BRmax maximum binding ratio ([9]; mice cerebellum, model estimate): 0.987
accumulation of PK or TO after once daily multiple doses (empirical, separate studies) ([9]; mice, once daily multiple doses, data not shown): no accumulation was observed
TAK-831 dosage at which maximum decline of tracer concentration was observed ([9]; mice, single p.o., tracer PGM019260 in cerebellum): ≥ 3 mg/kg
koff ([9]; mouse, read-out: Koff dissociation rate constant): 3.14e-05 s⁻¹
CL/F ([10]; C57BL/6 J, mouse, plasma, po, single p.o. 0.3-10 mg/kg, model estimate, read-out: CLp oral clearance (converted)): 85.7 mL/min/kg
Tmax ([10]; C57BL/6 J, mouse, plasma, po, single p.o., first sampling at 2 h): ≤ 2 h
dose dependency of plasma exposure ([10]; p.o. dose range 0.3 to 10 mg/kg): increased almost dose-proportionally
Vp apparent volume of distribution ([10]; single p.o. 0.3-10 mg/kg, model estimate): 35.7 L/kg
D-serine levels in the cerebellum of normal mice [11]: increase D-serine levels
acquisition of the conditioned response [12]: improvement in the acquisition of the conditioned response
scopolamine induced deficit [12]: reversing the scopolamine induced deficit
Imax maximum inhibitory effect [13]: 0.877
BRmax maximum binding ratio [14]: 0.987
fraction unbound [15]: 0.077
Kp ([16]; C57BL/6 J): 0.181
fraction unbound ([16]; C57BL/6 J): 0.425
time by which equilibrium across BBB was reached ([16]; C57BL/6 J): ≤ 0.25 h
Kp uu [16]: 1
substrate of breast cancer resistance protein (BCRP) [17]: neither a substrate

dose dependency of plasma exposure of radioactivity [16]: increased almost dose-proportionally
Compound: O=c1[nH]nc(CCc2ccc([14C](F)(F)F)cc2)cc1O [[^14C]TAK-831]

Compound: O=C([O-])c1ccccc1.[Na+] [sodium benzoate]
displacement of PGM019260 in the mouse cerebellum [18]: dose dependent displacement

Source: PMC7478952 (Pharmaceutical Research, 2020)
